Literature values in patent publication US10449180B2, “Macrolide particulates, methods for preparation, and medical devices associated therewith” (Surmodics, Inc., priority 2013, dated 2019).

solubility in N,N-dimethylformamide (N,N-dimethylformamide): soluble
solubility in acetone (acetone): soluble
solubility in ether (ether): soluble
solubility in water (water): insoluble
Structure (SMILES): CO[C@H]1C[C@@H]2CC[C@@H](C)[C@@](O)(O2)C(=O)C(=O)N2CCCC[C@H]2C(=O)O[C@H]([C@H](C)C[C@@H]2CC[C@@H](O)[C@H](OC)C2)CC(=O)[C@H](C)/C=C(\C)[C@@H](O)[C@@H](OC)C(=O)[C@H](C)C[C@H](C)/C=C/C=C/C=C/1C [Rapamycin, rapamycin]
